For assay [1], the target named is T1, TGR5 (NCI-H716 cell line) (Homo sapiens, UniProt Q8TDU6).
T1 sequence (Q8TDU6 1-330): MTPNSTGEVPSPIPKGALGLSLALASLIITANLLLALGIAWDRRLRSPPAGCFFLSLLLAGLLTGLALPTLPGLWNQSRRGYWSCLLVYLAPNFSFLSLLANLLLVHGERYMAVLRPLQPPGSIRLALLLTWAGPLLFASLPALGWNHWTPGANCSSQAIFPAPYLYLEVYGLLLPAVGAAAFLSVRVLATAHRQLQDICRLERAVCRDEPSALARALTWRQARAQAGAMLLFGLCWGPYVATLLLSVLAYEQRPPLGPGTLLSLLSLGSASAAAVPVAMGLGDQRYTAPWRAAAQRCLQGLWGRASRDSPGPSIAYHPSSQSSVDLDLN
The assay can be described thus: NCI-H716 cAMP Agonist EC50 Determination.
Experimental: Cells were cultured in suspension using RPM containing: 10% HI FBS, and 1× Penn/Strep and were cryostored (1E7 cells/vial in 5% DMSO).
A Normalized signal (NS) is generated by the Envision for each well ((Read 1/Read 2)×10,000).
The data from the Envision were imported to an Excel worksheet. nM cAMP is calculated for each well from the cAMP standard curves located on each plate by first calculating the slope and deriving the intercept (b).
[formula] [formula] [formula] EC50 values were determined from a 4-point fit (Hill equation) of a single 11-point compound dosing.

The target in another assay is T2, TGR5 (STC1 cell line) (Mus musculus, UniProt Q80SS6).
T2 sequence (Q80SS6 1-329): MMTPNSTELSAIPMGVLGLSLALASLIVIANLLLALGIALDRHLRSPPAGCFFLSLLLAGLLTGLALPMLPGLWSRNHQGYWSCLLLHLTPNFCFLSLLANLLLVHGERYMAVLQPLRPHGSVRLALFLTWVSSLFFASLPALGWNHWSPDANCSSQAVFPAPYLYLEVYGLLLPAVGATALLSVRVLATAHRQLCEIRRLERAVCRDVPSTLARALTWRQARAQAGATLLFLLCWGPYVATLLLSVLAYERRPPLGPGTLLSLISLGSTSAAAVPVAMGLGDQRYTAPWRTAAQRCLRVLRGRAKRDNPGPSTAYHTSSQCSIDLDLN
Kind of assay: STC1 cAMP Agonist EC50 Determination.

One may read the EC50 as the concentration that produces a half-maximal response.

Structures can show the parent of a compound that is named as a salt. Some results are limits rather than exact numbers.

Experimental for TGR5 (STC1 cell line): Cell stocks were maintained and grown in a sub-confluent state using standard cell culture procedures. The day before the experiment, the cells were harvested with non-enzymatic cell dissociation buffer and resuspended in complete growth media at 4E5 c/ml. […] The seeded plates were incubated overnight at 37° C.
On the day of the experiment, Assay Buffer containing: HBSS with Ca^2+and Mg^2+; 5 μM HEPES; 0.1% BSA; and, 0.5 μM IBMX was prepared. The growth medium was washed from the cell plates and replaced with 20 μL of Assay Buffer. […] The reaction was stopped by the addition of 20 μL 0.1% Formic Acid to all wells. Sixty minutes later 30 μL 3 M deuterated AMP was added to all wells (as a control for volume addition to the mass spec). Plates were mixed on a plate shaker for 1 min and centrifugated (5 min 3000 RPMs no brakes).
Plates were run on a 4000 QTrap triple-quadrapole Mass spectrometer in positive ion mode coupled with a Biocius RapidFire 300is. […] Two ions (cAMP and deuterated AMP were measured using Multiple Reaction Monitoring (MRM) in positive ion mode and the area under the curve (AUC) was determined for each of the ions.
The data from the Mass Spec/Rapid Plate AUC for cAMP and deuterated AMP were imported to an Excel worksheet. A Normalized signal (NS) was generated for each well=(cAMP AUC for the well/deut AMP AUC for the well)*average deut AMP AUC for the plate). nM cAMP was calculated for each well from the cAMP standard curves located on each plate by first calculating the slope and deriving the intercept (b).
EC50 values were determined from a 4-point fit (Hill equation) of a single 11-point compound dosing.

`COc1cc(C2CCCc3nc(SCc4c(F)cc(/C=C5\SC(=O)NC5=O)cc4F)n(-c4ccc(F)cc4)c32)ccc1Cl` (stereo not shown) [Example 37, (5Z)-5-[[4-([[7-(4-chloro-3-methoxyphenyl)-1-(4-fluorophenyl)-4,5,6,7-tetrahydro-1H-1,3-benzodiazol-2-yl]sulfanyl]methyl)-3,5-difluorophenyl]methylidene]-1,3-thiazolidine-2,4-dione]: the EC50 in assay [1] was above 50000 nM; at TGR5 (STC1 cell line), 14900 nM.

Turning to `COc1cc(C2CCCc3nc(SCc4c(F)cc(CC5SC(=O)NC5=O)cc4F)n(-c4ccc(F)cc4)c32)ccc1Cl` (stereo not shown) [Example 38, 5-(4-((7-(4-chloro-3-methoxyphenyl)-1-(4-fluorophenyl)-4,5,6,7-tetrahydro-1H-benzo[d]imidazol-2-ylthio)methyl)-3,5-difluorobenzyl)thiazolidine-2,4-dione trifluoroacetic acid], the results for the EC50 (in assay [1]; at TGR5 (STC1 cell line)) were above 50000 nM and 1250 nM, respectively.

On to `C/N=C(\N)NCCCc1cc(F)c(CSc2nc3c(n2-c2ccc(F)cc2)C(c2ccc(Cl)c(OC)c2)CCC3)c(F)c1` (stereo not shown) [Example 39a, (E)-1-[3-[4-([[7-(4-chloro-3-methoxyphenyl)-1-(4-fluorophenyl)-4,5,6,7-tetrahydro-1H-1,3-benzodiazol-2-yl]sulfanyl]methyl)-3,5-difluorophenyl]propyl]-2-methylguanidine hydrochloride], for which the EC50 was above 50000 nM in assay [1] and 360 nM at TGR5 (STC1 cell line).

`COc1cc(C2CCCc3nc(SCc4c(F)cc(CCCN(C)C)cc4F)n(-c4ccc(F)cc4)c32)ccc1Cl` (stereo not shown) [Example 39b, 3-(4-((7-(4-chloro-3-methoxyphenyl)-1-(4-fluorophenyl)-4,5,6,7-tetrahydro-1H-benzo[d]imidazol-2-ylthio)methyl)-3,5-difluorophenyl)-N,N-dimethylpropan-1-amine trifluoroacetic acid]: the EC50 in assay [1] was above 50000 nM; at TGR5 (STC1 cell line), 16300 nM.

Take `CCOC(=O)CCc1cc(F)c(CSc2nc3c(n2-c2ccc(F)cc2)C(c2ccc(Cl)c(OC)c2)CCC3)c(F)c1` (stereo not shown) [Example 40, Ethyl 3-(4-((7-(4-chloro-3-methoxyphenyl)-1-(4-fluorophenyl)-4,5,6,7-tetrahydro-1H-benzo[d]imidazol-2-ylthio)methyl)-3,5-difluorophenyl)propanoate trifluoroacetic acid]: the concentration for a half-maximal effect (EC50) in assay [1] was above 50000 nM; at TGR5 (STC1 cell line) it was 1360 nM.

As to `COc1cc(C2CCCc3nc(SCc4c(F)cc(CCCO)cc4F)n(-c4ccc(F)cc4)c32)ccc1Cl` (stereo not shown) [Example 41, 3-(4-((7-(4-chloro-3-methoxyphenyl)-1-(4-fluorophenyl)-4,5,6,7-tetrahydro-1H-benzo[d]imidazol-2-ylthio)methyl)-3,5-difluorophenyl)propan-1-ol trifluoroacetic acid], the EC50 is above 50000 nM in assay [1] and 890 nM on TGR5 (STC1 cell line).

With `COc1cc(C2CCCc3nc(SCc4c(F)cc(CCCNC(=N)N)cc4F)n(-c4ccc(F)cc4)c32)ccc1Cl` (stereo not shown) [Example 42, 1-(3-(4-((7-(4-chloro-3-methoxyphenyl)-1-(4-fluorophenyl)-4,5,6,7-tetrahydro-1H-benzo[d]imidazol-2-ylthio)methyl)-3,5-difluorophenyl)propyl)guanidine trifluoroacetic acid], the EC50 was above 50000 nM in assay [1] and 530 nM at TGR5 (STC1 cell line).

Regarding `COc1cc(C2CCCc3nc(SCc4c(F)cc(CCCN/C(N)=N/C#N)cc4F)n(-c4ccc(F)cc4)c32)ccc1Cl` (stereo not shown) [Example 43, (E)-1-(3-(4-((7-(4-chloro-3-methoxyphenyl)-1-(4-fluorophenyl)-4,5,6,7-tetrahydro-1H-benzo[d]imidazol-2-ylthio)methyl)-3,5-difluorophenyl)propyl)-2-cyanoguanidine hydrochloride], the concentration for a half-maximal effect (EC50) in assay [1] is above 50000 nM; at TGR5 (STC1 cell line), 670 nM.

Turning to `COc1cc(C2CCCc3nc(SCc4c(F)cc(CCC(=O)O)cc4F)n(-c4ccc(F)cc4)c32)ccc1Cl` (stereo not shown) [Example 44, 3-(4-((7-(4-chloro-3-methoxyphenyl)-1-(4-fluorophenyl)-4,5,6,7-tetrahydro-1H-benzo[d]imidazol-2-ylthio)methyl)-3,5-difluorophenyl)propanoic acid trifluoroacetic acid], the figures for the EC50 (in assay [1]; on TGR5 (STC1 cell line)) were above 50000 nM and 1390 nM, respectively.

For `COc1cc(C2CCCc3nc(SCc4c(F)cc(CCC(N)=O)cc4F)n(-c4ccc(F)cc4)c32)ccc1Cl` (stereo not shown) [Example 45, 3-(4-((7-(4-chloro-3-methoxyphenyl)-1-(4-fluorophenyl)-4,5,6,7-tetrahydro-1H-benzo[d]imidazol-2-ylthio)methyl)-3,5-difluorophenyl)propanamide trifluoroacetic acid], the concentration giving a half-maximal response (EC50) in assay [1] was above 50000 nM; at TGR5 (STC1 cell line) it was 350 nM.

`COc1cc(C2CCCc3nc(SCc4c(F)cc(CCC#N)cc4F)n(-c4ccc(F)cc4)c32)ccc1Cl` (stereo not shown) [Example 46, 3-(4-((7-(4-chloro-3-methoxyphenyl)-1-(4-fluorophenyl)-4,5,6,7-tetrahydro-1H-benzo[d]imidazol-2-ylthio)methyl)-3,5-difluorophenyl)propanenitrile trifluoroacetic acid]: the values for the 50% effective concentration (EC50) (in assay [1]; on TGR5 (STC1 cell line)) were above 50000 nM and 140 nM, respectively.

Take `COc1cc(C2CCCc3nc(SCc4c(F)cc(CC/C=N/NC(=N)N)cc4F)n(-c4ccc(F)cc4)c32)ccc1Cl` (stereo not shown) [Example 47, (E)-2-(3-(4-((7-(4-chloro-3-methoxyphenyl)-1-(4-fluorophenyl)-4,5,6,7-tetrahydro-1H-benzo[d]imidazol-2-ylthio)methyl)-3,5-difluorophenyl)propylidene) hydrazinecarboximidamide hydrochloride]: the EC50 in assay [1] worked out at 47300 nM; on TGR5 (STC1 cell line), 370 nM.

For the compound `C/N=C(\N)N/N=C/CCc1cc(F)c(CSc2nc3c(n2-c2ccc(F)cc2)C(c2ccc(Cl)c(OC)c2)CCC3)c(F)c1` (stereo not shown) [Example 48, (1E,2E)-2-(3-(4-((7-(4-chloro-3-methoxyphenyl)-1-(4-fluorophenyl)-4,5,6,7-tetrahydro-1H-benzo[d]imidazol-2-ylthio)methyl)-3,5-difluorophenyl)propylidene)-N′-methylhydrazinecarboximidamide hydrochloride], the EC50 was above 50000 nM in assay [1] and 350 nM at TGR5 (STC1 cell line).

On to `COc1cc(C2CCCc3nc(SCc4c(F)cc(CCc5nnn[nH]5)cc4F)n(-c4ccc(F)cc4)c32)ccc1Cl` (stereo not shown) [Example 49, 2-(4-(2-(1H-tetrazol-5-yl)ethyl)-2,6-difluorobenzylthio)-7-(4-chloro-3-methoxyphenyl)-1-(4-fluorophenyl)-4,5,6,7-tetrahydro-1H-benzo[d]imidazole trifluoroacetic acid], for which the EC50 is above 50000 nM in assay [1] and 940 nM on TGR5 (STC1 cell line).

For `COc1cc(C2CCCc3nc(SCc4c(F)cncc4F)n(-c4ccc(F)cc4)c32)ccc1Cl` (stereo not shown) [Example 50, 7-(4-chloro-3-methoxyphenyl)-2-((3,5-difluoropyridin-4-yl)methylthio)-1-(4-fluorophenyl)-4,5,6,7-tetrahydro-1H-benzo[d]imidazole trifluoroacetic acid], the EC50 in assay [1] was found to be 34700 nM; at TGR5 (STC1 cell line) it was 280 nM.

As for `COc1cc(C2CCCc3nc(SCc4ccncc4F)n(-c4ccc(F)cc4)c32)ccc1Cl` (stereo not shown) [Example 51, 2-((3-fluoropyridin-4-yl)methylthio)-7-(4-chloro-3-methoxyphenyl)-1-(4-fluorophenyl)-4,5,6,7-tetrahydro-1H-benzo[d]imidazole trifluoroacetic acid], the EC50 in assay [1] is above 50000 nM; on TGR5 (STC1 cell line), 5500 nM.

Consider `COc1cc(C2CCCc3nc(SCc4ncccc4F)n(-c4ccc(F)cc4)c32)ccc1Cl` (stereo not shown) [Example 52, 2-((3-fluoropyridin-2-yl)methylthio)-7-(4-chloro-3-methoxyphenyl)-1-(4-fluorophenyl)-4,5,6,7-tetrahydro-1H-benzo[d]imidazole trifluoroacetic acid], for which the concentration for a half-maximal effect (EC50) in assay [1] was above 50000 nM; at TGR5 (STC1 cell line) it was 450 nM.

On to `COc1cc(C2CCCc3nc(SCc4c(Cl)cncc4Cl)n(-c4ccc(F)cc4)c32)ccc1Cl` (stereo not shown) [Example 54], for which the concentration giving a half-maximal response (EC50) in assay [1] is above 50000 nM; on TGR5 (STC1 cell line) it was 4410 nM.

In the case of `COc1cc(C2CCCc3nc(SCc4c(F)cncc4Cl)n(-c4ccc(F)cc4)c32)ccc1Cl` (stereo not shown) [Example 55, 7-(4-chloro-3-methoxyphenyl)-2-[[(3-chloro-5-fluoropyridin-4-yl)methyl]sulfanyl]-1-(4-fluorophenyl)-4,5,6,7-tetrahydro-1H-1,3-benzodiazole bis(trifluoroacetic acid)], the EC50 in assay [1] is above 50000 nM; at TGR5 (STC1 cell line), 180 nM.

As for `COc1cc(C2CCCc3nc(SCc4c(F)cncc4Br)n(-c4ccc(F)cc4)c32)ccc1Cl` (stereo not shown) [Example 56, 2-((3-bromo-5-fluoropyridin-4-yl)methylthio)-7-(4-chloro-3-methoxyphenyl)-1-(4-fluorophenyl)-4,5,6,7-tetrahydro-1H-benzo[d]imidazole trifluoroacetic acid], the EC50 in assay [1] is above 50000 nM; at TGR5 (STC1 cell line) it was 130 nM.

The values above are taken from US10077241B2 (Janssen Pharmaceutica NV, priority 2014, dated 2018).
